# Experimental data: patent publication US8993574B2, “Pyrrole antifungal agents” (F2G Ltd, priority 2008, dated 2015)
# Columns and labels:
# Format in all cases: cell-based
# [1] = system: Aspergillus fumigatus AF210; assay: MIC, YAG medium; conditions: 24 h at 35° C, MIC banded into grades; for MIC: Aspergillus fumigatus, read-out: MIC grade, A. fumigatus 210
# How it was run: (§1)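 Broth microdilution in YAG medium tests compound over 50-0.05 mg/L against spores at 1−2×10^4 cfu/mL. After 24 h incubation at 35° C, optical density at 485 nm gives growth, and the MIC is the lowest concentration reducing it by more than 70% relative to untreated control.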
# [2] = system: Aspergillus fumigatus AF293; assay: MIC, YAG medium; conditions: 24 h at 35° C, MIC banded into grades; for MIC: Aspergillus fumigatus, read-out: MIC grade, A. fumigatus
# How it was run: as §1
# Aspergillus flavus [3] = assay: MIC, YAG medium; conditions: 24 h at 35° C, MIC banded into grades; for MIC: Aspergillus flavus, 24 h, read-out: MIC grade, A. flavus
# How it was run: as §1
# Aspergillus niger [4] = assay: MIC, YAG medium; conditions: 24 h at 35° C, MIC banded into grades; for MIC: Aspergillus niger, read-out: MIC grade, A. niger
# How it was run: as §1
# Aspergillus terreus AT49 [5] = assay: MIC, YAG medium; conditions: 24 h at 35° C, MIC banded into grades; for MIC: Aspergillus terreus, read-out: MIC grade, A. terreus 49
# How it was run: as §1
# Aspergillus terreus AT4 [6] = assay: MIC, YAG medium; conditions: 24 h at 35° C, MIC banded into grades; for MIC: Aspergillus terreus, read-out: MIC grade, A. terreus
# How it was run: as §1
# [7] = system: Aspergillus fumigatus AF210; assay: MIC, RPMI medium; conditions: for MIC grade, A. fumigatus 210: MIC banded into grades; for MIC: Aspergillus fumigatus, AF210, MIC banded into grades, read-out: MIC grade, A. fumigatus 210
# How it was run: (§2)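 Broth microdilution in RPMI medium with 2% glucose and 0.135 M MOPS (pH 7.0); compounds as doubling dilutions over 50-0.05 mg/L, inoculum 1−2×10^4 cfu/mL. Plates incubated 24-48 h at 35° C; OD 485 nm read, MIC being lowest concentration giving >80% growth inhibition versus drug-free control.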
# Candida tropicalis = assay: MIC, RPMI medium; conditions: 24-48 h at 35° C., >80% growth inhibition, banded into grades; for MIC: Candida tropicalis
# How it was run: as §2
# [8] = system: Aspergillus fumigatus AF293; assay: MIC, RPMI medium; conditions: for MIC grade, A. fumigatus: MIC banded into grades; for MIC: Aspergillus fumigatus, AF293, MIC banded into grades, read-out: MIC grade, A. fumigatus
# How it was run: as §2
# Candida krusei = assay: MIC, RPMI medium; conditions: 24-48 h at 35° C., >80% growth inhibition, banded into grades; for MIC: Pichia kudriavzevii
# How it was run: as §2
# Aspergillus flavus [9] = assay: MIC, RPMI medium; conditions: MIC banded into grades; for MIC: Aspergillus flavus, read-out: MIC grade, A. flavus
# How it was run: as §2
# Aspergillus niger [10] = assay: MIC, RPMI medium; conditions: MIC banded into grades; for MIC: Aspergillus niger, read-out: MIC grade, A. niger
# How it was run: as §2
# Aspergillus terreus AT49 [11] = assay: MIC, RPMI medium; conditions: for MIC grade, A. terreus 49: MIC banded into grades; for MIC: Aspergillus terreus, AT49, MIC banded into grades, read-out: MIC grade, A. terreus 49
# How it was run: as §2
# Candida albicans = assay: MIC, RPMI medium; conditions: 24-48 h at 35° C., >80% growth inhibition, banded into grades; for MIC: Candida albicans
# How it was run: as §2
# Candida parapsilosis = assay: MIC, RPMI medium; conditions: 24-48 h at 35° C., >80% growth inhibition, banded into grades; for MIC: Lodderomyces parapsilosis
# How it was run: as §2
# Candida glabrata = assay: MIC, RPMI medium; conditions: 24-48 h at 35° C., >80% growth inhibition, banded into grades; for MIC: Nakaseomyces glabratus
# How it was run: as §2
# Aspergillus terreus AT4 [12] = assay: MIC, RPMI medium; conditions: for MIC grade, A. terreus: MIC banded into grades; for MIC: Aspergillus terreus, AT4, MIC banded into grades, read-out: MIC grade, A. terreus
# How it was run: as §2
Compound,MIC [1] [µg/mL],MIC [2] [µg/mL],MIC (Aspergillus flavus [3]) [µg/mL],MIC (Aspergillus niger [4]) [µg/mL],MIC (Aspergillus terreus AT49 [5]) [µg/mL],MIC (Aspergillus terreus AT4 [6]) [µg/mL],MIC [7] [µg/mL],MIC (Candida tropicalis) [µg/mL],MIC [8] [µg/mL],MIC (Candida krusei) [µg/mL],MIC (Aspergillus flavus [9]) [µg/mL],MIC (Aspergillus niger [10]) [µg/mL],MIC (Aspergillus terreus AT49 [11]) [µg/mL],MIC (Candida albicans) [µg/mL],MIC (Candida parapsilosis) [µg/mL],MIC (Candida glabrata) [µg/mL],MIC (Aspergillus terreus AT4 [12]) [µg/mL],also measured
"CCOC(=O)Cn1c(C)cc(-c2ccccc2)c1C(=O)C(=O)Nc1ccc(N2CCN(c3cc(C)cc(C)n3)CC2)cc1 [Example 69, (2-{4-[4-(4,6-Dimethyl-pyridin-2-yl)-piperazin-1-yl]-phenylaminooxalyl}-5-methyl-3-phenyl-pyrrol-1-yl)-acetic acid ethyl ester]",–,–,–,–,–,–,–,–,–,–,–,–,–,–,–,–,–,"MIC grade, A. fumigatus 210 [1]: 3 (A grade of 3 represents an MIC of less than 1 mg/L); MIC grade, A. fumigatus [2]: 3 (A grade of 3 represents an MIC of less than 1 mg/L); MIC grade, A. flavus (Aspergillus flavus [3]): 2 (A grade of 2 represents an MIC of from 1 to 10 mg/L); MIC grade, A. niger (Aspergillus niger [4]): 3 (A grade of 3 represents an MIC of less than 1 mg/L); MIC grade, A. terreus 49 (Aspergillus terreus AT49 [5]): 3 (A grade of 3 represents an MIC of less than 1 mg/L); MIC grade, A. terreus (Aspergillus terreus AT4 [6]): 3 (A grade of 3 represents an MIC of less than 1 mg/L); MIC grade, A. fumigatus 210 [7]: 3 (A grade of 3 represents an MIC of less than 1 mg/L); Candida MIC, C. tropicalis (Candida tropicalis): 3 (A grade of 3 represents an MIC of less than 1 mg/L); MIC grade, A. fumigatus [8]: 3 (A grade of 3 represents an MIC of less than 1 mg/L); Candida MIC, C. krusei (Candida krusei): 2 (A grade of 2 represents an MIC of from 1 to 10 mg/L); MIC grade, A. flavus (Aspergillus flavus [9]): 1 (a grade of 1 represents an MIC of greater than 10 mg/L); MIC grade, A. niger (Aspergillus niger [10]): 3 (A grade of 3 represents an MIC of less than 1 mg/L); MIC grade, A. terreus 49 (Aspergillus terreus AT49 [11]): 2 (A grade of 2 represents an MIC of from 1 to 10 mg/L); Candida MIC, C. albicans (Candida albicans): 2 (A grade of 2 represents an MIC of from 1 to 10 mg/L); Candida MIC, C. parapsilosis (Candida parapsilosis): 3 (A grade of 3 represents an MIC of less than 1 mg/L); Candida MIC, C. glabrata (Candida glabrata): 3 (A grade of 3 represents an MIC of less than 1 mg/L); MIC grade, A. terreus (Aspergillus terreus AT4 [12]): 2 (A grade of 2 represents an MIC of from 1 to 10 mg/L)"
"COCCn1c(C)cc(-c2ccccc2)c1C(=O)C(=O)Nc1ccc(N2CCN(c3ccc(CN4CCOCC4)cn3)CC2)cc1 [Example 103, 2-[1-(2-Methoxy-ethyl)-5-methyl-3-pheny-1H-pyrrol-2-yl]-N-{4-[4-(5-morpholin-4-ylmethyl-pyridin-2-yl)-piperazin-1-yl]-phenyl}-2-oxo-acetamide]",–,–,–,–,–,–,–,–,–,–,–,–,–,–,–,–,–,"MIC grade, A. fumigatus 210 [1]: 3 (A grade of 3 represents an MIC of less than 1 mg/L); MIC grade, A. fumigatus [2]: 3 (A grade of 3 represents an MIC of less than 1 mg/L); MIC grade, A. flavus (Aspergillus flavus [3]): 1 (a grade of 1 represents an MIC of greater than 10 mg/L); MIC grade, A. niger (Aspergillus niger [4]): 1 (a grade of 1 represents an MIC of greater than 10 mg/L); MIC grade, A. terreus 49 (Aspergillus terreus AT49 [5]): 2 (A grade of 2 represents an MIC of from 1 to 10 mg/L); MIC grade, A. terreus (Aspergillus terreus AT4 [6]): 2 (A grade of 2 represents an MIC of from 1 to 10 mg/L); MIC grade, A. fumigatus 210 [7]: 2 (A grade of 2 represents an MIC of from 1 to 10 mg/L); Candida MIC, C. tropicalis (Candida tropicalis): 3 (A grade of 3 represents an MIC of less than 1 mg/L); MIC grade, A. fumigatus [8]: 2 (A grade of 2 represents an MIC of from 1 to 10 mg/L); Candida MIC, C. krusei (Candida krusei): 3 (A grade of 3 represents an MIC of less than 1 mg/L); MIC grade, A. flavus (Aspergillus flavus [9]): 1 (a grade of 1 represents an MIC of greater than 10 mg/L); MIC grade, A. niger (Aspergillus niger [10]): 3 (A grade of 3 represents an MIC of less than 1 mg/L); MIC grade, A. terreus 49 (Aspergillus terreus AT49 [11]): 2 (A grade of 2 represents an MIC of from 1 to 10 mg/L); Candida MIC, C. albicans (Candida albicans): 3 (A grade of 3 represents an MIC of less than 1 mg/L); Candida MIC, C. parapsilosis (Candida parapsilosis): 3 (A grade of 3 represents an MIC of less than 1 mg/L); Candida MIC, C. glabrata (Candida glabrata): 3 (A grade of 3 represents an MIC of less than 1 mg/L); MIC grade, A. terreus (Aspergillus terreus AT4 [12]): 2 (A grade of 2 represents an MIC of from 1 to 10 mg/L)"
"COCCn1c(C)cc(-c2ccccc2)c1C(=O)C(=O)Nc1ccc(N2CCCCC2)cc1F [Example 114, N-(2-Fluoro-4-piperidin-1-yl-phenyl)-2-[1-(2-methoxy-ethyl)-5-methyl-3-phenyl-1H-pyrrol-2-yl]-2-oxo-acetamide]",< 1,< 1,< 1,< 1,< 1,< 1,1 to 10,< 1,1 to 10,< 1,1 to 10,< 1,1 to 10,< 1,< 1,< 1,1 to 10,–

# Continued, in another order:
MIC [1] [µg/mL],MIC [2] [µg/mL],MIC (Aspergillus flavus [3]) [µg/mL],MIC (Aspergillus niger [4]) [µg/mL],MIC (Aspergillus terreus AT49 [5]) [µg/mL],MIC (Aspergillus terreus AT4 [6]) [µg/mL],MIC [7] [µg/mL],MIC (Candida tropicalis) [µg/mL],MIC [8] [µg/mL],MIC (Candida krusei) [µg/mL],MIC (Aspergillus flavus [9]) [µg/mL],MIC (Aspergillus niger [10]) [µg/mL],MIC (Aspergillus terreus AT49 [11]) [µg/mL],MIC (Candida albicans) [µg/mL],MIC (Candida parapsilosis) [µg/mL],MIC (Candida glabrata) [µg/mL],MIC (Aspergillus terreus AT4 [12]) [µg/mL],Compound,also measured
> 10,1 to 10,> 10,> 10,1 to 10,1 to 10,> 10,< 1,> 10,1 to 10,> 10,> 10,> 10,< 1,< 1,< 1,> 10,"COCCn1ccc(CC(C)C)c1C(=O)C(=O)Nc1ccc(N2CCN(c3cc(C)cc(C)n3)CC2)cc1 [Example 68, N-{4-[4-(4,6-Dimethyl-pyridin-2-yl)-piperazin-1-yl]-phenyl}-2-[3-isobutyl-1-(2-methoxy-ethyl)-1H-pyrrol-2-yl]-2-oxo-acetamide]",–
1 to 10,1 to 10,> 10,> 10,1 to 10,1 to 10,1 to 10,< 1,1 to 10,1 to 10,> 10,> 10,> 10,< 1,< 1,< 1,> 10,"COCCn1ccc(-c2ccc(Cl)cc2)c1C(=O)C(=O)Nc1ccc(N2CCN(c3cc(C)cc(C)n3)CC2)cc1 [Example 59, 2-[3-(4-Chloro-phenyl)-1-(2-methoxy-ethyl)-1H-pyrrol-2-yl]-N-{4-[4-(4,6-dimethyl-pyridin-2-yl)-piperazin-1-yl]-phenyl}-2-oxo-acetamide]",–
< 1,< 1,< 1,< 1,< 1,< 1,< 1,1 to 10,< 1,< 1,< 1,< 1,< 1,< 1,< 1,< 1,< 1,"C=C(C)CN1CCN(c2ccc(NC(=O)C(=O)c3c(-c4ccccc4)cc(C)n3CCOC)c(F)c2)CC1 [Example 109, N-{2-Fluoro-4-[4-(2-methyl-allyl)-piperazin-1-yl]-phenyl}-2-[1-(2-methoxy-ethyl)-5-methyl-3-phenyl-1H-pyrrol-2-yl]-2-oxo-acetamide]",–
< 1,< 1,< 1,1 to 10,< 1,1 to 10,1 to 10,1 to 10,1 to 10,1 to 10,1 to 10,1 to 10,1 to 10,1 to 10,1 to 10,< 1,1 to 10,"COCCn1ccc(-c2ccccc2)c1C(=O)C(=O)Nc1ccc(N2CCN(c3cc(C)cc(C)n3)CC2)cc1 [Example 47, N-{4-[4-(4,6-Dimethyl-pyridin-2-yl)-piperazin-1-yl]-phenyl}-2-[1-(2-methoxy-ethyl)-3-phenyl-1H-pyrrol-2-yl]-2-oxo-acetamide]",–
